This passage reports DC50 results from patent US20240190880A1 (THE REGENTS OF THE UNIVERSITY OF MICHIGAN, priority 2021, published 2024).

Broadly, the DC50 is the concentration giving 50% degradation.

One assay has as its target T1, ER (Homo sapiens, UniProt P03372).
T1 construct: host or cells: T47D and MCF7 human breast cancer cells
T1 sequence (P03372 1-595): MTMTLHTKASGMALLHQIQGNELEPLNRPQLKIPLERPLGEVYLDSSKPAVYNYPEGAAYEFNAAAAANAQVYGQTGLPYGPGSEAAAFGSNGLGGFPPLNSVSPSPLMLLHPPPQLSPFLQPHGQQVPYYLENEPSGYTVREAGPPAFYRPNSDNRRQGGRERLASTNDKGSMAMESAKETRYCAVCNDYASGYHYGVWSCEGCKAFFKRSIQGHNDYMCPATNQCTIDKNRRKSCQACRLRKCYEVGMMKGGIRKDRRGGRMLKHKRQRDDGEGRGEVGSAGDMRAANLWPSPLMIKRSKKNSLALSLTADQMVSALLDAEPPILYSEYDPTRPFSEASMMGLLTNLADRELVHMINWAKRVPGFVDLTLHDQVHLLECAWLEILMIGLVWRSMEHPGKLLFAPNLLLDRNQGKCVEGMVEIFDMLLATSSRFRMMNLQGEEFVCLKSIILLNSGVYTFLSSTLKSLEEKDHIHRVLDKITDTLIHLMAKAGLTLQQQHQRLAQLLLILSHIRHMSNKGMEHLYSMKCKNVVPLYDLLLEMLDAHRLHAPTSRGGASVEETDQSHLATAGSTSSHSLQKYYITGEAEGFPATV
The assay can be described thus: ER degradation activity, in-cell western blot analysis in T47D cells. The assay is classed as cell-based. As to conditions: 16 hours, Table A does not say which cell line (T47D or MCF7), read-out: Potency (DC50). In a few lines:
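Read-out is near-infrared fluorescence from an in-cell western, expressed as ER percentage relative to untreated and DMSO controls taken as 100%. T47D breast cancer cells received compound for 16 h in 0.5% DMSO.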
Turning to `C[C@@H]1Cc2cc(O)ccc2[C@@H](c2c(F)cc(N3CCC4(CN(CC(=O)N5Cc6cc7c(cc6C5)C(=O)N(C5CCC(=O)NC5=O)C7)C4)C3)cc2F)N1CC(F)F` (stereo partly drawn) [E 38, 3-(6-(2-(6-(4-((1S,3R)-2-(2,2-difluoroethyl)-6-hydroxy-3-methyl-1,2,3,4-tetrahydroisoquinolin-1-yl)-3,5-difluorophenyl)-2,6-diazaspiro[3.4]octan-2-yl)acetyl)-1-oxo-3,5,6,7-tetrahydropyrrolo[3,4-f]isoindol-2(1H)-yl)piperidine-2,6-dione], the DC50 was in the range of 10 to 100 nM.
Same read-out and setting: for `C[C@@H]1Cc2cc(O)ccc2[C@@H](c2ccc(C3CCC(C(=O)N4CCC(N5Cc6cc7c(cc6C5)C(=O)N(C5CCC(=O)NC5=O)C7=O)CC4)CC3)cc2F)N1CC(F)F` (stereo partly drawn) [E 317, 6-(1-(4-(4-((1S,3R)-2-(2,2-difluoroethyl)-6-hydroxy-3-methyl-1,2,3,4-tetrahydroisoquinolin-1-yl)-3-fluorophenyl)cyclohexane-1-carbonyl)piperidin-4-yl)-2-(2,6-dioxopiperidin-3-yl)-6,7-dihydropyrrolo[3,4-f]isoindole-1,3(2H,5H)-dione] the value was 10 to 100 nM; for `O=C1CCC(N2C(=O)c3cc4c(cc3C2=O)CN(CC(=O)N2CCC3(CC2)CCN(c2cc(F)c([C@@H]5c6ccc(O)cc6CC[C@@H]5c5ccccc5)c(F)c2)CC3)C4)C(=O)N1` (mixture of isomers) [E 176, Rac-6-(2-(9-(3,5-difluoro-4-((1S,2S)-6-hydroxy-2-phenyl-1,2,3,4-tetrahydronaphthalen-1-yl)phenyl)-3,9-diazaspiro[5.5]undecan-3-yl)-2-oxoethyl)-2-(2,6-dioxopiperidin-3-yl)-6,7-dihydropyrrolo[3,4-f]isoindole-1,3(2H,5H)-dione], > 100 nM.
The same measure, in the same setting: as for `O=C1CCC(N2C(=O)c3cc4c(cc3C2=O)CN(CC(=O)N2CCC3(CC2)CCN(c2ccc(C(=C(CCCl)c5ccccc5)c5ccc(O)cc5)cc2)CC3)C4)C(=O)N1` (stereo not shown) [E 182, 6-(2-(9-(4-(4-chloro-1-(4-hydroxyphenyl)-2-phenylbut-1-en-1-yl)phenyl)-3,9-diazaspiro[5.5]undecan-3-yl)-2-oxoethyl)-2-(2,6-dioxopiperidin-3-yl)-6,7-dihydropyrrolo[3,4-f]isoindole-1,3(2H,5H)-dione], the figure is < 10 nM.
On the same count and under the same terms, for `C[C@@H]1Cc2c([nH]c3ccccc23)[C@@H](c2ccc(N3CCC4(CC3)CN(C(=O)CN3Cc5cc6c(cc5C3)C(=O)N(C3CCC(=O)NC3=O)C6=O)C4)cc2)N1CC(F)F` (stereo partly drawn) [E 262, 6-(2-(7-(4-((1R,3R)-2-(2,2-difluoroethyl)-3-methyl-2,3,4,9-tetrahydro-1H-pyrido[3,4-b]indol-1-yl)phenyl)-2,7-diazaspiro[3.5]nonan-2-yl)-2-oxoethyl)-2-(2,6-dioxopiperidin-3-yl)-6,7-dihydropyrrolo[3,4-f]isoindole-1,3(2H,5H)-dione] the value was 10 to 100 nM; for `O=C1CCC(N2C(=O)c3cc4c(cc3C2=O)CN(CC(=O)N2CC3(CCN(c5ccc([C@@H]6c7ccc(O)cc7CC[C@@H]6c6ccccc6)cc5)CC3)C2)CCC4)C(=O)N1` (stereo partly drawn) [E 171, 2-(2,6-dioxopiperidin-3-yl)-6-(2-(7-(4-((1R,2S)-6-hydroxy-2-phenyl-1,2,3,4-tetrahydronaphthalen-1-yl)phenyl)-2,7-diazaspiro[3.5]nonan-2-yl)-2-oxoethyl)-6,7,8,9-tetrahydroazepino[3,4-f]isoindole-1,3(2H,5H)-dione], > 100 nM.
For `O=C1CCC(N2C(=O)c3cc4c(cc3C2=O)CN(C2CCN(CC3(F)CN(c5ccc([C@@H]6c7ccc(O)cc7CC[C@@H]6c6ccccc6)cc5)C3)CC2)C4)C(=O)N1` (stereo partly drawn) [E 285, 2-(2,6-dioxopiperidin-3-yl)-6-(1-((3-fluoro-1-(4-((1R,2S)-6-hydroxy-2-phenyl-1,2,3,4-tetrahydronaphthalen-1-yl)phenyl)azetidin-3-yl)methyl)piperidin-4-yl)-6,7-dihydropyrrolo[3,4-f]isoindole-1,3(2H,5H)-dione], the DC50 was > 100 nM.
Same read-out and setting: for `C[C@@H]1Cc2c([nH]c3ccccc23)[C@@H](c2c(F)cc(N3CCC(N4CC(CC(=O)N5Cc6cc7c(cc6C5)C(=O)N(C5CCC(=O)NC5=O)C7=O)C4)CC3)cc2F)N1CC(F)F` (stereo partly drawn) [E 55, 6-(2-(1-(1-(4-((1R,3R)-2-(2,2-difluoroethyl)-3-methyl-2,3,4,9-tetrahydro-1H-pyrido[3,4-b]indol-1-yl)-3,5-difluorophenyl)piperidin-4-yl)azetidin-3-yl)acetyl)-2-(2,6-dioxopiperidin-3-yl)-6,7-dihydropyrrolo[3,4-f]isoindole-1,3(2H,5H)-dione] the value was > 100 nM; for `C[C@@H]1Cc2c([nH]c3ccccc23)[C@@H](c2ccc(N3CCC4(CCN(C(=O)CN5Cc6cc7c(cc6C5)C(=O)N(C5CCC(=O)NC5=O)C7=O)CC4)CC3)cc2F)N1CC(F)F` (stereo partly drawn) [E 293, 6-(2-(9-(4-((1R,3R)-2-(2,2-difluoroethyl)-3-methyl-2,3,4,9-tetrahydro-1H-pyrido[3,4-b]indol-1-yl)-3-fluorophenyl)-3,9-diazaspiro[5.5]undecan-3-yl)-2-oxoethyl)-2-(2,6-dioxopiperidin-3-yl)-6,7-dihydropyrrolo[3,4-f]isoindole-1,3(2H,5H)-dione], 10 to 100 nM.
As for `C[C@@H]1Cc2c([nH]c3ccccc23)[C@@H](c2c(F)cc(N3CCC(C(=O)N4CC(CN5Cc6cc7c(cc6C5)C(=O)N(C5CCC(=O)NC5=O)C7=O)C4)CC3)cc2F)N1CC(F)F` (stereo partly drawn) [E 234, 6-((1-(1-(4-((1R,3R)-2-(2,2-difluoroethyl)-3-methyl-2,3,4,9-tetrahydro-1H-pyrido[3,4-b]indol-1-yl)-3,5-difluorophenyl)piperidine-4-carbonyl)azetidin-3-yl)methyl)-2-(2,6-dioxopiperidin-3-yl)-6,7-dihydropyrrolo[3,4-f]isoindole-1,3(2H,5H)-dione], the DC50 fell in the range of 10 to 100 nM.

Staying with this assay, now noted: compounds 16 hours, Table A does not say whether T47D or MCF7, read-out: Potency (DC50).
Turning to `C[C@@H]1Cc2c(ccc3[nH]ncc23)[C@@H](c2c(F)cc(N3CCC(C(=O)N4C5CCC4CC(N4Cc6cc7c(cc6C4)C(=O)N(C4CCC(=O)NC4=O)C7=O)C5)CC3)cc2F)N1CC(F)F` (stereo partly shown) [E 469], the DC50 was 10 to 100 nM.
In the case of `O=C1CCC(N2C(=O)c3cc4c(cc3C2=O)CN(CC(=O)N2CC3(CCN(c5ccc([C@H]6c7ccc(O)cc7CC[C@H]6c6ccccc6)cc5)CC3)C2)C4)C(=O)N1` (stereo partly drawn) [E 438, 2-(2,6-dioxopiperidin-3-yl)-6-(2-(7-(4-((1S,2R)-6-hydroxy-2-phenyl-1,2,3,4-tetrahydronaphthalen-1-yl)phenyl)-2,7-diazaspiro[3.5]nonan-2-yl)-2-oxoethyl)-6,7-dihydropyrrolo[3,4-f]isoindole-1,3(2H,5H)-dione], the DC50 was > 100 nM.
On the same count and under the same terms, for `O=C1CCC(N2C(=O)c3cc4c(cc3C2=O)CC2(C4)CN(CC(=O)N3CC(Oc4ccc([C@@H]5c6ccc(O)cc6CC[C@@H]5c5ccccc5)cc4)C3)C2)C(=O)N1` (stereo partly drawn) [E 503, 2′-(2,6-dioxopiperidin-3-yl)-1-(2-(3-(4-((1R,2S)-6-hydroxy-2-phenyl-1,2,3,4-tetrahydronaphthalen-1-yl)phenoxy)azetidin-1-yl)-2-oxoethyl)-5′,7′-dihydro-1′H-spiro[azetidine-3,6′-cyclopenta[f]isoindole]-1′,3′(2′H)-dione] the value was > 100 nM.
